# Test results reported in ChEMBL document CHEMBL1148552, “Pulvinones as bacterial cell wall biosynthesis inhibitors” (Bioorg Med Chem Lett, 2006).
# Assays:
# [1] = biological target: T1, UDP-N-acetylenolpyruvoylglucosamine reductase (Escherichia coli K-12, UniProt P08373); assay: Inhibitory activity against MurB in Escherichia coli
# T1 sequence (P08373 whole entry): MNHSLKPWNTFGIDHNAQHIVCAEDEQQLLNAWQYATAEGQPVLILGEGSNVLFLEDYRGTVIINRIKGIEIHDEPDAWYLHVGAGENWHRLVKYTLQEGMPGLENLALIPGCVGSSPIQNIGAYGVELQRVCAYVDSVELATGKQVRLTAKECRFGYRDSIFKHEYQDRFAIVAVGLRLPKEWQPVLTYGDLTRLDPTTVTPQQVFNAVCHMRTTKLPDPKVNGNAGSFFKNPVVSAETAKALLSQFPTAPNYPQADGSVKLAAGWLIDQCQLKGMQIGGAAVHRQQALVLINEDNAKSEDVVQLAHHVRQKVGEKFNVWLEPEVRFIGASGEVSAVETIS
# Staphylococcus aureus [2] = assay: Antibacterial activity against Staphylococcus aureus; type: functional; conditions: GC 4543
# Staphylococcus aureus [3] = assay: Antibacterial activity against methicillin resistant Staphylococcus aureus; type: functional; conditions: GC 1131
# Enterococcus faecalis [4] = assay: Antibacterial activity against Enterococcus faecalis; type: functional; conditions: GC 4555
# [5] = biological target: T2, UDP-N-acetylmuramoylalanine--D-glutamate ligase (Escherichia coli K-12, UniProt P14900); assay: Inhibitory activity against MurD in Escherichia coli
# T2 sequence (P14900 whole entry): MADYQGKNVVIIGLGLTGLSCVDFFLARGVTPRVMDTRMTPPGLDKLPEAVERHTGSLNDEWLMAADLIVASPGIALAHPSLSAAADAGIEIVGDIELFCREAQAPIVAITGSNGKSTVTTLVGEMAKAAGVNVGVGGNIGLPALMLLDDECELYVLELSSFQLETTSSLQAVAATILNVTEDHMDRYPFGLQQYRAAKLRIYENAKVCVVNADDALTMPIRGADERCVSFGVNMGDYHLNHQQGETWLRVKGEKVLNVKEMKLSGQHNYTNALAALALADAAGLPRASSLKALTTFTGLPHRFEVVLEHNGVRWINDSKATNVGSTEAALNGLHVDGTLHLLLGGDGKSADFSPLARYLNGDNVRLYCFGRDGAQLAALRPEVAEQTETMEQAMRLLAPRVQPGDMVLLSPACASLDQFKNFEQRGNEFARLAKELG
# Enterococcus faecalis [6] = assay: Antibacterial activity against vancomycin resistant Enterococcus faecalis; type: functional; conditions: GC 2242
# Streptococcus pneumoniae = assay: Antibacterial activity against penicillin resistant Streptococcus pneumoniae; type: functional; conditions: GC 1894
# [7] = biological target: T3, UDP-N-acetylmuramoylalanine--D-glutamate ligase (Staphylococcus aureus, UniProt P0A091); assay: Inhibitory activity against MurD in Staphylococcus aureus
# T3 sequence (P0A091 whole entry): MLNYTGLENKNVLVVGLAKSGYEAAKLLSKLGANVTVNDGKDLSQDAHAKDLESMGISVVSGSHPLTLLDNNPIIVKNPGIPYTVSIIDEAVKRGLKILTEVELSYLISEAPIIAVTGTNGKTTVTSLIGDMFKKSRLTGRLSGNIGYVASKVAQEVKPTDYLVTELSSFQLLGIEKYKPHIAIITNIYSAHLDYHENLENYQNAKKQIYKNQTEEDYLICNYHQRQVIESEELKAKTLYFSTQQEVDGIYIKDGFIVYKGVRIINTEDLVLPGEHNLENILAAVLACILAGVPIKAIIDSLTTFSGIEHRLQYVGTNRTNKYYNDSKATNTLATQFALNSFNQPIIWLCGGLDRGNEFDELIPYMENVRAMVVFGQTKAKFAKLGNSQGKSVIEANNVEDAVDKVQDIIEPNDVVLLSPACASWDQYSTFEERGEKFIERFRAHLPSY
# [8] = biological target: T4, UDP-N-acetylmuramate--L-alanine ligase (Staphylococcus aureus, UniProt O31211); assay: Inhibitory activity against MurC in Staphylococcus aureus
# T4 sequence (O31211 whole entry): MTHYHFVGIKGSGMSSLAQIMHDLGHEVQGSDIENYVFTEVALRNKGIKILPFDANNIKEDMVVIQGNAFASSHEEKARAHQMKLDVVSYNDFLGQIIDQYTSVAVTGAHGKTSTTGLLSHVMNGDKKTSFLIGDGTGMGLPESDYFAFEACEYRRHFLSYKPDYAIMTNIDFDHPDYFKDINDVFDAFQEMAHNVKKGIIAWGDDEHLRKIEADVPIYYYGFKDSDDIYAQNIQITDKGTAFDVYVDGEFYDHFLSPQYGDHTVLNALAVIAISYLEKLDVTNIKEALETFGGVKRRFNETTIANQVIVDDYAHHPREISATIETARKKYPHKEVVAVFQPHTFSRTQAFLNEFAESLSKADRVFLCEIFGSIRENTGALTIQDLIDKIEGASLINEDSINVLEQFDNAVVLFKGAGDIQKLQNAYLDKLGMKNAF
# [9] = biological target: UDP-N-acetylglucosamine 1-carboxyvinyltransferase (Escherichia coli K-12, UniProt P0A749); assay: Inhibitory activity against MurA in Escherichia coli
# [10] = biological target: UDP-N-acetylmuramate--L-alanine ligase (Escherichia coli K-12, UniProt P17952); assay: Inhibitory activity against MurC in Escherichia coli
# Sequence of UDP-N-acetylmuramate--L-alanine ligase (Escherichia coli K-12, UniProt P17952) (P17952 whole entry): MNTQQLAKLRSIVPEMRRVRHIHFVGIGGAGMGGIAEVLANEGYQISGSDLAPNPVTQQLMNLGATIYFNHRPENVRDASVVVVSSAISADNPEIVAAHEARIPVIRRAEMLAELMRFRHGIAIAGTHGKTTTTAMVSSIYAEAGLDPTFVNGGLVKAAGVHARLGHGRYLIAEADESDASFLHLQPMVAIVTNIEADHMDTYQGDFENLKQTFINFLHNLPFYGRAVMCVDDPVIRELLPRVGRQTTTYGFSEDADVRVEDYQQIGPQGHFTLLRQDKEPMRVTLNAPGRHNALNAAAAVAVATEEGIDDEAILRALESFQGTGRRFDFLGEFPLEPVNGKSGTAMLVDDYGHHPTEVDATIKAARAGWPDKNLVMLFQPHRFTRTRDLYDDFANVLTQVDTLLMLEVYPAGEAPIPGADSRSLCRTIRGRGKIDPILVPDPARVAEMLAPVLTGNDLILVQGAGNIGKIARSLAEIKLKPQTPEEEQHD
# Sequence of UDP-N-acetylglucosamine 1-carboxyvinyltransferase (P0A749 whole entry): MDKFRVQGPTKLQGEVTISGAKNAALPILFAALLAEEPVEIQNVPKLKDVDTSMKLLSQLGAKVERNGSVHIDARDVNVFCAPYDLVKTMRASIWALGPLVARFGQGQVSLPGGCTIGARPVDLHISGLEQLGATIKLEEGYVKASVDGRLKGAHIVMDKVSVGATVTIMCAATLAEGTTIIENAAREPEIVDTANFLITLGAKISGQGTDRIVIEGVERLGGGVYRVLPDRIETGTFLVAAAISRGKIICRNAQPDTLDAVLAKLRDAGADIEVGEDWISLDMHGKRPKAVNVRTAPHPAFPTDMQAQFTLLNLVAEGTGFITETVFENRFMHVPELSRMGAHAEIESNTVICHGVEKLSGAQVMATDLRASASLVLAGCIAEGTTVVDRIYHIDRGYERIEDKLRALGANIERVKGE
SMILES,IC50 [1] [µM],MIC (Staphylococcus aureus [2]) [µg/mL],MIC (Staphylococcus aureus [3]) [µg/mL],MIC (Enterococcus faecalis [4]) [µg/mL],IC50 [5] [µM],MIC (Enterococcus faecalis [6]) [µg/mL],MIC (Streptococcus pneumoniae) [µg/mL],IC50 [7] [µM],IC50 [8] [µM],IC50 [9] [µM],IC50 [10] [µM]
O=C1O/C(=C\c2cccc(C(F)(F)F)c2)C(O)=C1c1ccc(-c2ccccc2)cc1,12.2,4,4,8,> 61.2,4,0.5,–,–,–,–
Cc1ccccc1-c1ccc(/C=C2\OC(O)=C(c3cc(Cl)cc(Cl)c3)C2=O)cc1C,2.29,0.5,0.5,2,–,0.5,≤ 0.12,20.6,52.6,4.57,–
O=C1O/C(=C\C2CCCCC2)C(O)=C1c1ccc2ccccc2c1,–,16,> 128,32,–,8,≤ 0.12,–,–,–,–
O=C1O/C(=C\c2ccc(Cl)cc2)C(O)=C1c1ccc(-c2ccccc2)cc1,–,16,16,8,> 66.7,4,1,–,–,> 66.7,–
O=C1O/C(=C\c2ccc(-c3ccccc3)cc2)C(O)=C1c1cccc2ccccc12,> 64,4,8,32,> 64,8,4,–,–,–,–
O=C1O/C(=C\c2cccc(C(F)(F)F)c2)C(O)=C1c1ccc(-c2ccccc2)c(F)c1,–,2,2,1,> 58.6,0.25,0.25,–,–,23.5,18.8
O=C1O/C(=C\c2cccc(C(F)(F)F)c2)C(O)=C1c1cccc2ccccc12,> 65.4,64,32,> 128,> 65.4,32,8,–,–,> 65.4,–
O=C1O/C(=C\c2cc(C(F)(F)F)ccc2F)C(O)=C1c1ccc(-c2ccccc2)c(F)c1,–,2,2,2,–,2,0.5,–,–,–,–
COc1ccc(C2=C(O)O/C(=C\c3cccc4ccccc34)C2=O)cc1,> 72.6,64,32,> 128,> 72.6,32,8,–,–,> 72.6,46.5
O=C1O/C(=C\c2ccc(-c3cc(Cl)cc(Cl)c3)cc2)C(O)=C1c1cc(Cl)cc(Cl)c1,–,0.5,4,1,–,0.5,≤ 0.12,–,–,–,–
COc1ccc(C2=C(O)O/C(=C\c3cccc(C(F)(F)F)c3)C2=O)cc1,> 69,128,1,128,69,64,2,–,–,> 69,38.6
O=C1O/C(=C\c2cccc(-c3cccc(Cl)c3)c2)C(O)=C1c1cccc(Cl)c1,–,1,> 128,8,–,4,1,–,–,–,–
O=C1O/C(=C\c2cccc(C(F)(F)F)c2Cl)C(O)=C1c1ccc(-c2ccccc2)c(F)c1,–,1,1,2,–,0.5,0.25,–,–,–,–
COc1ccccc1-c1ccc(/C=C2\OC(O)=C(c3cc(Cl)cc(Cl)c3)C2=O)cc1OC,12.8,2,2,8,> 53.3,8,0.5,–,–,36.2,12.8
O=C1O/C(=C\c2ccc3ccccc3c2)C(O)=C1c1cccc(C(F)(F)F)c1,–,8,8,16,> 65.4,4,0.5,–,–,> 65.4,–
O=C1O/C(=C\c2cc(C(F)(F)F)ccc2Cl)C(O)=C1c1ccc(-c2ccccc2)c(F)c1,–,1,1,4,–,1,0.25,–,–,–,–
O=C1O/C(=C\c2ccccc2-c2ccc(Cl)c(Cl)c2)C(O)=C1c1ccc(Cl)c(Cl)c1,–,0.25,0.5,1,–,0.5,≤ 0.12,10.5,37.6,6.27,–
O=C1O/C(=C\c2cccc(-c3cc(Cl)cc(Cl)c3)c2)C(O)=C1c1cc(Cl)cc(Cl)c1,–,0.25,0.25,1,–,0.5,0.25,12.5,–,4.18,–
O=C1O/C(=C\c2cccc(C(F)(F)F)c2)C(O)=C1c1ccc2ccccc2c1,–,8,8,32,> 65.4,8,8,–,–,–,–
O=C1O/C(=C\c2cccc(C(F)(F)F)c2)C(O)=C1c1ccc(Cl)cc1,24.5,8,16,16,> 68.2,8,1,–,–,38.2,16.4
O=C1O/C(=C\C2CCCCC2)C(O)=C1c1cccc(C(F)(F)F)c1,> 73.9,> 128,32,64,> 73.9,32,≤ 0.12,–,–,> 73.9,–
O=C1O/C(=C\c2cccc3ccccc23)C(O)=C1c1ccc(Cl)cc1,–,8,8,16,> 71.7,8,0.5,–,–,> 71.7,–
O=C1O/C(=C\c2ccccc2)C(O)=C1c1ccccc1 [PULVINONE],–,–,–,–,–,–,–,–,–,–,≤ 30.3
Cc1cc(/C=C2\OC(O)=C(c3cccc(Cl)c3)C2=O)ccc1-c1ccccc1C(F)(F)F,6.57,1,2,4,–,2,≤ 0.12,26.3,32.8,8.76,–
O=C1O/C(=C\c2cccc3ccccc23)C(O)=C1c1cccc(C(F)(F)F)c1,–,8,8,16,> 65.4,8,0.5,–,–,> 65.4,–
O=C1O/C(=C\c2ccc(-c3ccccc3)cc2)C(O)=C1c1ccc2ccccc2c1,–,4,16,8,> 64,4,2,–,–,> 64,–
O=C1O/C(=C(/C(=O)Nc2cccc(C(F)(F)F)c2)c2ccccc2)C(O)=C1c1ccccc1,–,–,–,–,–,–,–,–,–,–,17.7
O=C1O/C(=C\c2cc(C(F)(F)F)ccc2Cl)C(O)=C1c1ccc(N2CCOCC2)c(F)c1,21.3,128,64,128,–,128,16,> 53.2,> 53.2,> 53.2,–
